Assay results: patent publication US8546389B2 (priority 2010, dated 2013)

Key:
1b (BK) NS5bΔ21 = 1b (BK) NS5bΔ21 (Hepatitis C virus genotype 1b (isolate BK) (HCV), UniProt P26663); experiment: HCV polymerase inhibition assay, genotype 1b; type: biochemical, HCV genotype 1b (BK); settings: 1b (BK) NS5bΔ21, 33P-GTP incorporation; read-out: 1b polymerase IC50 (range class)
Procedure: HCV polymerase reactions were carried out using a modified method of Howe et al., Antimicrobial Agents and Chemotherapy 2004 48(12): 4813-4821. Reactions contained a final concentration of, 0.5% DMSO, 50 nM, 1b (BK) NS5bΔ21, 20 mM Tris-HCl pH 7.5, 5 mM MgCl2, 5 mM MnCl2, 3 mM DTT, 0.05% BSA, 0.2 U/μL RNasin, 10 μg/mL Poly(rC) template, GTP (at Km) and 0.05 μCi/μL ^33P-GTP in a total reaction volume of 50 μL. Compounds were tested in a three fold dilution series, for example starting from 50 μM. Reactions were initiated with the addition of GTP and terminated after 1 hour with 50 μL ice cold 0.2 M EDTA. Terminated reactions were transferred to DEAE 96-well filter plates, unincorporated nucleotides washed from the filters and 50 μL scintillation fluid added prior to reading on a scintillation counter. Similarly, a genotype 3a (VRL-69) NS5bΔ21 polymerase enzyme assay was conducted using essentially the same method.
The compound concentration that reduced ^33P-GTP incorporation by 50% (IC50) was calculated using non-linear regression.

[1] = tested on: genotype 1b (Con 1) subgenomic replicon cell line; experiment: HCV replicon assay, genotype 1b (Renilla luciferase); type: cell-based, HCV genotype 1b (Con 1); settings: Hepatitis C virus; genotype 1b replicon, 72 hours, luciferase; read-out: genotype 1b EC50 (range class)
Procedure: A genotype 1b (Con 1) subgenomic replicon cell line based on Blight et al., Science 2000 290: 1972-1974, modified to express a Renilla luciferase reporter gene was used to assess antiviral activity of test compounds. Cell cultures were maintained in a sub-confluent state in DMEM with glutamine, 10% heat-inactivated foetal bovine serum (FBS) and G418 (Geneticin®).
For assay, cells were seeded at a density of 7000 cells/well into 96 well tissue culture trays in culture media lacking G418. Compounds were tested in a three fold dilution series, for example starting from 50 uM. After 72 hours incubation at 37° C. and 5% CO2, Renilla luciferase activity was quantified via the Promega Renilla Luciferase or Renilla-Glo™ Luciferase Assay Systems (Promega corporation. The same method was employed for replicon assays using subgenomic genotype 1a and 2a replicon cell lines with a seeding cell density of 5000 cells/well for the 2a cell lines.
The compound concentration that reduced luciferase activity by 50% (EC50) was calculated using non-linear regression.

Sequence of 1b (BK) NS5bΔ21 (P26663 2420-2989): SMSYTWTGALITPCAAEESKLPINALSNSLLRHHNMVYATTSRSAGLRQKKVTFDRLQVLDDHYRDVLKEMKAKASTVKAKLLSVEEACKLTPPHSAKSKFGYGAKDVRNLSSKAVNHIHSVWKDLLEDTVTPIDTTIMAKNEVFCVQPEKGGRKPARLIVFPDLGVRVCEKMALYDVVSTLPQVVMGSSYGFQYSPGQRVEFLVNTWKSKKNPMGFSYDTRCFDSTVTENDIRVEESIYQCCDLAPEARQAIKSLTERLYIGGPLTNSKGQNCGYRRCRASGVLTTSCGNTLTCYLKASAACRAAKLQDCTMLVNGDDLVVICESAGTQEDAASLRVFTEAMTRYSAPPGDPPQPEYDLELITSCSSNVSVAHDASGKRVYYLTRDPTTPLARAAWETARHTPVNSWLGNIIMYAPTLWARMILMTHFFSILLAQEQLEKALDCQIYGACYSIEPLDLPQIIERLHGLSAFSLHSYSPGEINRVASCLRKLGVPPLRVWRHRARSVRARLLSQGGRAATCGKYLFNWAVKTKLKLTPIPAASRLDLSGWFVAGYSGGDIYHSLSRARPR

| SMILES | IC50 (1b (BK) NS5bΔ21) [µM] | EC50 [1] [µM] |
| --- | --- | --- |
| CNC(=O)c1c2cc(C3CC3)c(N(CCCOC)S(C)(=O)=O)cc2nn1-c1ccc(Cl)cc1 [Compound 243] | < 0.99 | < 0.99 |
| CNC(=O)c1c2cc(C3CC3)c(N(CCC(=O)NS(=O)(=O)c3ccc(F)cc3)S(C)(=O)=O)cc2nn1-c1ccc(Br)cc1 [Compound 154] | < 0.99 | 10 to 50 |
| CNC(=O)c1c2cc(C3CC3)c(N(CCCN3CCCC3=O)S(C)(=O)=O)cc2nn1-c1ccc(Br)cc1 [Compound 194] | < 0.99 | < 0.99 |
| CNC(=O)c1c2cc(C3CC3)c(N(CCCN3CCOCC3)S(C)(=O)=O)cc2nn1-c1ccc(Cl)cc1 [Compound 201] | < 0.99 | < 0.99 |
| CNC(=O)c1c2cc(C3CC3)c(N(CCC[S+](C)[O-])S(C)(=O)=O)cc2nn1-c1ccc(Br)cc1 (stereo not shown) [Compound 101, 2-(4-bromophenyl)-5-cyclopropyl-N-methyl-6-[3-methylsulfinylpropyl(methylsulfonyl)amino]-2H-indazole-3-carboxamide] | < 0.99 | 1 to 9.99 |
| CNC(=O)c1c2cc(C3CC3)c(N(CC3CC3)S(C)(=O)=O)cc2nn1-c1ccc(Cl)cc1 [Compound 246] | < 0.99 | < 0.99 |
| CNC(=O)c1c2cc(C3CC3)c(N(CCN3CCCCC3)S(C)(=O)=O)cc2nn1-c1ccc(Oc2ccc(F)cc2)cc1 [Compound 114] | 1 to 9.99 | 1 to 9.99 |
| CNC(=O)c1c2cc(C3CC3)c(N(CCCC(=O)OC(C)C)S(C)(=O)=O)cc2nn1-c1ccc(Br)cc1 [Compound 220] | < 0.99 | < 0.99 |
| CNC(=O)c1c2cc(C3CC3)c(N(CCCNC(=O)[C@H]3C[C@H]3C(=O)OC)S(C)(=O)=O)cc2nn1-c1ccc(Br)cc1 [Compound 204] | < 0.99 | < 0.99 |
| CNC(=O)c1c2cc(C3CC3)c(N(CC3CC3)S(C)(=O)=O)cc2nn1-c1ccc(Br)cc1 [Compound 231] | < 0.99 | < 0.99 |
| CNC(=O)c1c2cc(C3CC3)c(N(CCF)S(C)(=O)=O)cc2nn1-c1ccc(Br)cc1 [Compound 241] | < 0.99 | < 0.99 |
| CNC(=O)c1c2cc(C3CC3)c(N(CCNC(C)=O)S(C)(=O)=O)cc2nn1-c1ccc(Br)cc1 [Compound 37] | 1 to 9.99 | 1 to 9.99 |
| CCc1cc2c(C(=O)NC)n(-c3ccc(F)cc3)nc2cc1N(CC)S(C)(=O)=O [Compound 72, 5-ethyl-6-[ethyl(methylsulfonyl)amino]-2-(4-fluorophenyl)-N-methyl-2H-indazole-3-carboxamide] | 1 to 9.99 | 1 to 9.99 |
| CNC(=O)c1c2cc(C3CC3)c(N(CCCC(=O)OCOC(=O)C(C)(C)C)S(C)(=O)=O)cc2nn1-c1ccc(Br)cc1 [Compound 94, [(2,2-dimethylpropanoyl)oxy]methyl 4-{[2-(4-bromophenyl)-5-cyclopropyl-3-(methylcarbamoyl)-2H-indazol-6-yl](methylsulfonyl)amino}butanoate] | < 0.99 | 1 to 9.99 |
| CNC(=O)c1c2cc(C3CC3)c(N(CCCNC(=O)C3CC3)S(C)(=O)=O)cc2nn1-c1ccc(Br)cc1 [Compound 183] | < 0.99 | < 0.99 |
| CNC(=O)c1c2cc(C3CC3)c(N(CCC(F)(F)F)S(C)(=O)=O)cc2nn1-c1ccc(Cl)cc1 [Compound 245] | < 0.99 | < 0.99 |

| SMILES | IC50 (1b (BK) NS5bΔ21) [µM] | EC50 [1] [µM] |
| --- | --- | --- |
| CCC(C)OC(=O)CCCN(c1cc2nn(-c3ccc(Br)cc3)c(C(=O)NC)c2cc1C1CC1)S(C)(=O)=O (stereo not shown) [Compound 92, butan-2-yl 4-{[2-(4-bromophenyl)-5-cyclopropyl-3-(methylcarbamoyl)-2H-indazol-6-yl](methylsulfonyl)amino}butanoate] | < 0.99 | < 0.99 |
| CNC(=O)c1c2cc(C3CC3)c(N(CCCNC(=O)CCN)S(C)(=O)=O)cc2nn1-c1ccc(Br)cc1 [Compound 61, 6-{[3-(β-Alanylamino)propyl](methylsulfonyl)amino}-2-(4-bromophenyl)-5-cyclopropyl-N-methyl-2H-indazole-3-carboxamide] | < 0.99 | 1 to 9.99 |
| CNC(=O)c1c2cc(C3CC3)c(N(CCCNC(=O)CCC(=O)O)S(C)(=O)=O)cc2nn1-c1ccc(Br)cc1 [Compound 68, 4-[(3-{[2-(4-bromophenyl)-5-cyclopropyl-3-(methylcarbamoyl)-2H-indazol-6-yl](methylsulfonyl)amino}propyl)amino]-4-oxobutanoic acid] | < 0.99 | 10 to 50 |
| CNC(=O)c1c2cc(C3CC3)c(N(Cc3ccncc3)S(C)(=O)=O)cc2nn1-c1ccc(Br)cc1 [Compound 140] | < 0.99 | < 0.99 |
| CCN(c1cc2nn(-c3ccc(F)cc3)c(C(=O)NC)c2cc1C1=CCOCC1)S(C)(=O)=O [Compound 142] | 10 to 50 | 1 to 9.99 |
| CCN(c1cc2nn(-c3ccc(F)cc3)c(C(=O)NC)c2cc1C1=CCCC1)S(C)(=O)=O [Compound 73, 5-(Cyclopent-1-en-1-yl)-6-[ethyl(methylsulfonyl)amino]-2-(4-fluorophenyl)-N-methyl-2H-indazole-3-carboxamide] | 10 to 50 | 1 to 9.99 |
| CNC(=O)c1c2cc(C3CC3)c(N(CCCO)S(C)(=O)=O)cc2nn1-c1ccc(C(C)C)cc1 [Compound 50, 5-cyclopropyl-6-[(3-hydroxypropyl)(methylsulfonyl)amino]-N-methyl-2-[4-(propan-2-yl)-phenyl]-2H-indazole-3-carboxamide] | 1 to 9.99 | 1 to 9.99 |
| CNC(=O)c1c2cc(C3CC3)c(N(CCCNC(=O)[C@H]3C[C@H]3C(=O)O)S(C)(=O)=O)cc2nn1-c1ccc(Br)cc1 [Compound 218] | < 0.99 | 1 to 9.99 |
| CNC(=O)c1c2cc(C3CC3)c(N(CCC3CCOCC3)S(C)(=O)=O)cc2nn1-c1ccc(Cl)cc1 [Compound 250] | < 0.99 | < 0.99 |
| CCN(c1cc2nn(-c3ccc(F)cc3)c(C(=O)NC)c2cc1C1CCCC1)S(C)(=O)=O [Compound 74, 5-cyclopentyl-6-[ethyl(methylsulfonyl)amino]-2-(4-fluorophenyl)-N-methyl-2H-indazole-3-carboxamide] | 10 to 50 | 1 to 9.99 |
| CNC(=O)c1c2cc(C3CC3)c(N(CCC(F)(F)F)S(C)(=O)=O)cc2nn1-c1ccc(Br)cc1 [Compound 233] | < 0.99 | < 0.99 |
| CCNC(=O)CCN(c1cc2nn(-c3ccc(Br)cc3)c(C(=O)NC)c2cc1C1CC1)S(C)(=O)=O [Compound 162] | 1 to 9.99 | 1 to 9.99 |
| CNC(=O)c1c2cc(C3CC3)c(N(CCCO)S(C)(=O)=O)cc2nn1-c1ccc(C)cc1 [Compound 214] | < 0.99 | < 0.99 |
| CNC(=O)c1c2cc(C3CC3)c(N(CCCOC(C)=O)S(C)(=O)=O)cc2nn1-c1ccc(Nc2ccc(F)cc2)cc1 [Compound 116] | < 0.99 | < 0.99 |
| CCOC(=O)C(CCCN(c1cc2nn(-c3ccc(Br)cc3)c(C(=O)NC)c2cc1C1CC1)S(C)(=O)=O)C(=O)OCC [Compound 212] | < 0.99 | < 0.99 |
| CNC(=O)c1c2cc(C3CC3)c(N(C3CCN(S(C)(=O)=O)CC3)S(C)(=O)=O)cc2nn1-c1ccc(Br)cc1 [Compound 108, 2-(4-bromophenyl)-5-cyclopropyl-N-methyl-6-[methylsulfonyl-(1-methylsulfonyl(piperidin-4-yl))amino]-2H-indazole-3-carboxamide] | < 0.99 | 1 to 9.99 |
